Assay results as given in patent US10071976B2, “Small molecule fatty acid synthase inhibitors” (Sanford Burnham Prebys Medical Discovery Institute, priority 2014, dated 2018).
Several values for one entry are separate records, joined by “and”; a condition that tells them apart may be missing. Equal values may be shown once. Blank lines part the entries; values can stand above or below the compound they belong to.

Tests used:
[1] = molecular target: T1, FASN-TE (Homo sapiens, UniProt P49327); test: In-vitro biochemical assay measuring FAS-TE inhibition (OMFH substrate, fluorescence)
Method: Min wells: Substrate+No enzyme+DMSO, Max wells: Substrate+Enzyme+DMSO, Sample wells: Substrate+Enzyme+Test compounds, Reference compound: Orlistat (make a fresh 10 mM stock in DMSO each time). 384-well black, low-volume plate (Greiner #784076)
Assay Protocol: • 1) ECHO transfer 160 nL of 125× Compound (or DMSO for control wells) per well. • 2) For Max and Sample wells: Add 10 μL of Enzyme (2×; 1.8 μM) prepared in RXN Buffer. For Min wells: Add 10 μL of RXN Buffer (No Enzyme). • 3) For all wells: Add 10 μL of Substrate (2×; 20 μM) prepared in diH2O+10% DMSO. • 4) Centrifuge plate for 1 minute at 1,000 rpm. • 5) Measure fluorescence every 5 minutes for 1-1.5 hours using the BMG POLARstar (ex 485 nm/em 520 nm; Gain=1015; 25 flashes). • 6) All volumes can be adjusted but the final DMSO concentration should be kept at about 6%.
Data Analysis: • 1) Calculate slopes and express as % Activity (Min wells=0%; Max wells=100%). • 2) Then, using Prism, calculate the IC50 values.

[2] = molecular target: T2, FASN thioesterase (Homo sapiens, UniProt P49327); test: FP-PEG-TAMRA labeling of recombinant FASN thioesterase; assay type: binding; settings: recombinant enzyme, 20 μM final, pH 7.8
T2 construct: label the active site of the FASN thioesterase and ACOT4
Method: (§1) Additionally, studies were performed to test the selectivity of Compounds 1, 16, 22, and 37 for the FASN thioesterase over its most closely related human homolog, the enzyme called ACOT4 (see FIG. 3). Both proteins were mixed and pretreated with the compound (20 μM final, pH 7.8) before addition of the fluorescent activity probe FP-PEG-TAMRA. Respective fluorescence of the bands was detected on a Hitachi flatbed scanner and a greyscale version used for quantitative analysis using ImageJ. Recombinant forms of each enzyme were incubated with compound 16, compound 1, compound 37, and compound 22. FP-TAMRA was included in this mixture to label the active site of the FASN thioesterase and ACOT4. […] These findings further attest to the high degree of selectivity of compounds 1, 16, 37 and 22 for the FASN thioesterase.

[3] = molecular target: T3, ACOT4 (Homo sapiens, UniProt Q8N9L9); test: FP-PEG-TAMRA labeling of recombinant ACOT4; assay type: binding; settings: recombinant enzyme, 20 μM final, pH 7.8
T3 sequence (Q8N9L9 1-421): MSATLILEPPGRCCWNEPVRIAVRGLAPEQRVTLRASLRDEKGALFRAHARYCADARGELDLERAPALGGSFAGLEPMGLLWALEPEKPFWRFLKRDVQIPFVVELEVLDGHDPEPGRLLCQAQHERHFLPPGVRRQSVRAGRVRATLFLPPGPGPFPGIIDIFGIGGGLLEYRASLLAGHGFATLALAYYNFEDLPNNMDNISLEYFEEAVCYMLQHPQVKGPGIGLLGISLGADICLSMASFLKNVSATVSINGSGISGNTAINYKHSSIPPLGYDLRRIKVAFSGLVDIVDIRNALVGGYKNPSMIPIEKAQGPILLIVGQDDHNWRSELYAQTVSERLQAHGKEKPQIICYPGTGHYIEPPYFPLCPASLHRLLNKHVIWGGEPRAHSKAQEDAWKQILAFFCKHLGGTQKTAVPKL
Method: as §1

[4] = tested on: prostate cancer PC-3 cells; test: De novo palmitate synthesis from 13C-glucose in whole cells (GC-MS); assay type: cell-based; settings: for de novo palmitate synthesis/DMSO (%): 20 μM, [U-13C]-glucose 24 h, pH 7.8, relative to DMSO control
Method: The ability of compounds to block biosynthesis of palmitate in whole cells (prostate cancer PC-3 cells) was measured by feeding cells isotopically labeled glucose (^13C-glucose) and measuring the incorporation of ^13C into palmitate by GC-MS.
Prostate cancer PC-3 cell were incubated with 20 μM of FASN inhibitors and labeled with [U-13C]-glucose for 24 h, pH 7.8. The incorporation of ^13C into palmitate from labeled glucose was determined by extracting fatty acids and resolving them by GC-MS. The mass distributions for fatty acid methyl esters for C16:0 (palmitate) were corrected for isotope natural abundance, and the corrected isotope patterns were used to calculate the labeling of acetyl-CoA in palmitate based on a binomial probability distribution of the incorporation of labeled acetyl units into the fatty acid chain.

[5] = molecular target: T1, FASN-TE; test: Eadie-Hofstee enzymology analysis; assay type: biochemical
Method: Furthermore, using a classical enzymology analysis (Eadie-Hofstee) compound 37 was determined to have a non-competitive mode of inhibition (see FIG. 2).

[6] = tested on: enzymes, receptors & ion channels; test: Commercial panel of 34 binding assays (Eurofins Panlabs); settings: 10 μM
Method: (§2) To further evaluate selectivity and identify any off-target effects, compound 37 was tested against a commercial panel of 34 binding assays (enzymes, receptors & ion channels) through Eurofins Panlabs. […] Compound 37 was also tested in a commercial panel of 17 diverse proteases (Reaction Biology).

[7] = molecular target: T4, CYP450 2C19 (Homo sapiens, UniProt P33261); test: Eurofins Panlabs binding panel: CYP450 2C19; settings: 10 μM
T4 construct: purchased Eurofins Panlabs
Method: as §2

[8] = tested on: sodium channel; test: Eurofins Panlabs binding panel: sodium channel; settings: 10 μM
Method: as §2

[9] = tested on: 17 diverse proteases; test: Commercial panel of 17 diverse proteases (Reaction Biology); assay type: biochemical; settings: up to 100 μM
Method: as §2

[10] = tested on: chymotrypsin; test: Reaction Biology protease panel: chymotrypsin; assay type: biochemical; settings: read-out: chymotrypsin inhibition (IC50)
Method: as §2

[11] = Pharmacokinetic study, IP dosing; assay type: in vivo; settings: mice, 10 mg/kg IP
Method: A pharmacokinetic (PK) study of Compound 37 dosed systemically (IP) in mice was conducted. At 10 mg/kg (IP) compound 37 attained plasma levels post dosing of >3 μM up to 30 min., >2 μM up to 1 h, and >1 μM up to 2 h.

[12] = molecular target: T5, FASN (Homo sapiens, UniProt P49327); test: Competition with activity-based probe FP-PEG-TAMRA in PC-3 whole cell lysate: FASN; assay type: binding; settings: PC-3 lysate, 20 μM final, pH 7.8
T5 construct: lysates of the prostate tumor line (PC3), which expresses FASN; endogenous in cells; host or cells: PC-3 prostate tumour cells (whole cell lysate)
Method: Studies were conducted to determine the selectivity of compound 16 for FASN over other human thioesterases. The ability of the compounds to bind the FASN holoenzyme was tested by assessing their ability to compete for the binding of an activity-based probe that covalently attaches to the active site of the FASN thioesterase. Thioesterases are members of the serine hydrolase family, which also includes a number of other types of enzymes including proteases, dipeptidyl peptidases, epoxide hydrolases, etc. To help assess the selectivity of compound 16, an activity-based probe polyethyleneglycol-6-carboxytetramethyl-rhodamine (FP-PEG-TAMRA) that binds covalently to the catalytic serine of all serine hydrolases was used. These studies were done by assessing the ability of compound 16 to compete for the binding of the activity-based probe in whole cell lysates. Several analogs of compound 16 were tested in this assay using lysates of the prostate tumor line (PC3), which expresses FASN, along with numerous other serine hydrolases. The PC-3 lysate was incubated with 8 different FASN inhibitors, including compounds 1, 16 and 97. Then the activity-based probe (FP-PEG-TAMRA) was added to each sample to label the serine hydrolases in the lysate.

T2 sequence (P49327 2207-2511 limits assumed): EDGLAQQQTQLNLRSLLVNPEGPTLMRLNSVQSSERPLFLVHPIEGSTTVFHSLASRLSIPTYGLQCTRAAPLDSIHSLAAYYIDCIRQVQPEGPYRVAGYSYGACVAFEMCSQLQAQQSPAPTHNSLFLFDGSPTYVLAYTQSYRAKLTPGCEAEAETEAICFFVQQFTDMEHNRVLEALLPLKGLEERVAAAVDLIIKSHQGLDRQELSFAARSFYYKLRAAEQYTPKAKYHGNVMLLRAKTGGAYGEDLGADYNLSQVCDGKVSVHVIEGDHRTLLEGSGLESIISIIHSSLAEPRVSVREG
T1 sequence (P49327 2207-2511 limits assumed): as above
T5 sequence (P49327 whole entry): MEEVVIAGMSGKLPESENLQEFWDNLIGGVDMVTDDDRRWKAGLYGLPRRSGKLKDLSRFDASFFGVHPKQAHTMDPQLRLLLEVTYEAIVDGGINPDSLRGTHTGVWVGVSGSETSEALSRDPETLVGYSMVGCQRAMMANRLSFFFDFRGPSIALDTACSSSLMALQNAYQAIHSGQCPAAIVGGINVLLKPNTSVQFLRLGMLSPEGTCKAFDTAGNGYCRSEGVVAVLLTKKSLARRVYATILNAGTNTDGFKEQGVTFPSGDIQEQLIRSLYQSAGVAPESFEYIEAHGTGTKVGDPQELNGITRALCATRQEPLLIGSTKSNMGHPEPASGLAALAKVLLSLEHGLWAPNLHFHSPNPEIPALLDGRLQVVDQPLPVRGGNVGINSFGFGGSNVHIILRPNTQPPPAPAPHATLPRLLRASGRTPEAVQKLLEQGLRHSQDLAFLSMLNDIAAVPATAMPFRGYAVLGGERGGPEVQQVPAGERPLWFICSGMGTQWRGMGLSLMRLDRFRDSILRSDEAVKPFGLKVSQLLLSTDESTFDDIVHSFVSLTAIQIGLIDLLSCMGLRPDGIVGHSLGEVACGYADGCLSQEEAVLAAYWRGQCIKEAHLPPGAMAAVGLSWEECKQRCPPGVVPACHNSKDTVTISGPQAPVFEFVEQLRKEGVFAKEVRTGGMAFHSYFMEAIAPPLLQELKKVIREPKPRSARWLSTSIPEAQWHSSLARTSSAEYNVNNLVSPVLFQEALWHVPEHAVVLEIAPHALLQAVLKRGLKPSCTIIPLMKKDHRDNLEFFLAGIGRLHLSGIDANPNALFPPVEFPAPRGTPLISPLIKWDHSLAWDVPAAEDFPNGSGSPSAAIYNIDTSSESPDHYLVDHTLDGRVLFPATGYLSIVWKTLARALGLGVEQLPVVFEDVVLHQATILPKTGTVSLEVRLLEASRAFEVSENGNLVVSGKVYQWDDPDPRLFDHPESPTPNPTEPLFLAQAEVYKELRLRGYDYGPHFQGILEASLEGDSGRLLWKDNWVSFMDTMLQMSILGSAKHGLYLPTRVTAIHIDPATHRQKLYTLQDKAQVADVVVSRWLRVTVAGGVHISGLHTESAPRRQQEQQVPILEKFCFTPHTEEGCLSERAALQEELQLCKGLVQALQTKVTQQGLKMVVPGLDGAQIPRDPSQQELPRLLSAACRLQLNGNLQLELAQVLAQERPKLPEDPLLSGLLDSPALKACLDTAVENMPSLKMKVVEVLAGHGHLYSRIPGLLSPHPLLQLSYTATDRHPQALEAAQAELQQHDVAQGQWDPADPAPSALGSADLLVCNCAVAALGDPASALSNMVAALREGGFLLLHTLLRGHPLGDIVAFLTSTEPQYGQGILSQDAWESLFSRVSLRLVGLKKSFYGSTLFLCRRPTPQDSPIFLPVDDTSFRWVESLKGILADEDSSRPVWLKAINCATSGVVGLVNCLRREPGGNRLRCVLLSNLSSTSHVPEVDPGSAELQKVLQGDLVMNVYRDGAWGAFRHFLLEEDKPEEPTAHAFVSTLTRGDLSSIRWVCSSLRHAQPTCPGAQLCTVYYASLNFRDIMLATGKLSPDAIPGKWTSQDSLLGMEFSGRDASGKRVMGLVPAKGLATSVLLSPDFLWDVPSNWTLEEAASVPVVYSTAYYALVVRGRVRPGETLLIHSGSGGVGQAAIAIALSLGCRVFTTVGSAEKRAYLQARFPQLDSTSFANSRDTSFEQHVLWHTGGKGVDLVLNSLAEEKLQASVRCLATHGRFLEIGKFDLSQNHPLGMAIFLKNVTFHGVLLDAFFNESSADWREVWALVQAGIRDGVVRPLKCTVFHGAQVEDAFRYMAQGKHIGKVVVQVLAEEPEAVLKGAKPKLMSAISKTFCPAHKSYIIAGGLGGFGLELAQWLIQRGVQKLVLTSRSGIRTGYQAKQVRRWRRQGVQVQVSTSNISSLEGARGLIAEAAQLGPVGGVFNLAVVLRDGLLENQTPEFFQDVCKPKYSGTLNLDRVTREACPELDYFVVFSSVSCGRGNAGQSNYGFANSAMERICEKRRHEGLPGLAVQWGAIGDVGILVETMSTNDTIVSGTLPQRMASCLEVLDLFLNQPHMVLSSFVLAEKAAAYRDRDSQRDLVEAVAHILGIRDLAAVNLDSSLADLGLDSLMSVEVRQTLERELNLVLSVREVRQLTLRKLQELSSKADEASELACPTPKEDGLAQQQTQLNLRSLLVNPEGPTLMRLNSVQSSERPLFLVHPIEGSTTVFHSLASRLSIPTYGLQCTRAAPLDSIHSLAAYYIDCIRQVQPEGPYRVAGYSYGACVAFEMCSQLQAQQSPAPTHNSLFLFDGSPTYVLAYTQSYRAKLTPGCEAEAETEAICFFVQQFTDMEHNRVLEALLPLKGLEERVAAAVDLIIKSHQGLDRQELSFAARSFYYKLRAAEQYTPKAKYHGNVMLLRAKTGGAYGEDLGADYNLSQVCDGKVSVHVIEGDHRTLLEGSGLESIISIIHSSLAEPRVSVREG
T4 sequence (P33261 whole entry): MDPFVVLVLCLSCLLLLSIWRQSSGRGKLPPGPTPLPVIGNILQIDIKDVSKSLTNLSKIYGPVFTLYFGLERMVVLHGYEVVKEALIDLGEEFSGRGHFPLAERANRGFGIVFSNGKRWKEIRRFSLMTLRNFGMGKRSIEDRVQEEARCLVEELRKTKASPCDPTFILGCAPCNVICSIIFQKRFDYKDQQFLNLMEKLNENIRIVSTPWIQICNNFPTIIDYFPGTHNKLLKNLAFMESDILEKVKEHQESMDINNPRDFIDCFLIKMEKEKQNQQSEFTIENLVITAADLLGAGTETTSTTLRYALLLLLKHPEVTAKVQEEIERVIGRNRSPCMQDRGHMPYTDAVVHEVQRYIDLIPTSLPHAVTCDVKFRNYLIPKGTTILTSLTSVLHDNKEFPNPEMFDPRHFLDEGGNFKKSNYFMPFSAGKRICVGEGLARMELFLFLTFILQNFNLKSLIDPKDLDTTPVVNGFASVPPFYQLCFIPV

Structure (SMILES): CCCCC(=O)Nc1nc(-c2ccc(S(=O)(=O)N3CCC(C)CC3)cc2)cs1 [Compound 22]
IC50 [1]: 0.501 µM | binding of FP-TAMRA to the active site of the FASN thioesterase [2]: blocked the binding of FP-TAMRA | activity labeling of ACOT4 [3]: without effect

Structure (SMILES): CCC(C)C(=O)Nc1nc(-c2ccc(S(=O)(=O)N(CC)CC)cc2)cs1 (centres unmarked) [Compound 37]
IC50 [1]: 0.3 µM | inhibition of palmitate synthesis in whole cells [4]: dose-dependently inhibits palmitate synthesis | mode of inhibition [5]: non-competitive | binding of FP-TAMRA to the active site of the FASN thioesterase [2]: blocked the binding of FP-TAMRA | activity labeling of ACOT4 [3]: without effect | binding interactions >50% in panel of 34 binding assays [6]: Only two binding interactions>50% | binding interaction [7]: 50% | binding interaction [8]: 74% | interactions in panel of 17 proteases [9]: Only one interaction | IC50 [10]: 1.7 µM | plasma levels post dosing ([11]; up to 30 min): > 3000 nM | plasma levels post dosing ([11]; up to 1 h): > 2000 nM | plasma levels post dosing ([11]; up to 2 h): > 1000 nM

Structure (SMILES): CCCCC(=O)Nc1nc(-c2ccc(S(=O)(=O)N3CCOCC3)cc2)cs1 [Compound 1]
IC50 [1]: 0.199 µM and 0.204 µM and 0.555 µM | inhibition of palmitate synthesis in whole cells [4]: inhibitory activity | de novo palmitate synthesis/DMSO (%) [4]: 40% | inhibition of FASN (blocking of FP-TAMRA binding) [12]: showed inhibition of FASN | binding of FP-TAMRA to the active site of the FASN thioesterase [2]: blocked the binding of FP-TAMRA | activity labeling of ACOT4 [3]: without effect

Structure (SMILES): CCN(CC)S(=O)(=O)c1ccc(-c2csc(Cc3ccccc3OC)n2)cc1 [Compound 113]
IC50 [1]: 6.92 µM

Second part, led by results:

IC50 [1]: ≥ 80 µM | activity in the enzyme-based assay ([1]; negative control): no activity | inhibition of FASN (blocking of FP-TAMRA binding) [12]: did not
Structure (SMILES): Cc1ccc(NC(=O)Cc2nc(-c3ccc(S(=O)(=O)N4CCOCC4)cc3)cs2)cc1 [Compound 97]
inhibition of palmitate synthesis in whole cells [4]: did not inhibit palmitate synthesis | de novo palmitate synthesis/DMSO (%) [4]: 95%

IC50 [1]: ≥ 80 µM
Structure (SMILES): CCN(CC)S(=O)(=O)c1ccc(-c2csc(Cc3cccc(C(F)(F)F)c3)n2)cc1 [Compound 108]
